Data on four compounds can be found in patent US20160300038A1, “METHODS OF N[…] DRUG CONCENTRATIONS IN URINE USING PATIENT […] DATA AND TESTING FOR POTENTIAL NON-[…] A CHRONIC DRUG TREATMENT REGIMEN” (Ameritox, Ltd., priority 2015, published 2016).

The nature of this data set: Urine drug testing (UDT): drug concentration of the primary metabolite (parent drug) in patient urine, e.g. LC/MSMS.

Experimental: Non-limiting examples for determining the amount of a drug in fluid of a subject include fluorescence polarization immunoassay (“FPIA,” Abbott Diagnostics), mass spectrometry (MS), gas chromatography-mass spectrometry (GC-MS-MS), liquid chromatography-mass spectrometry (LC-MS-MS), liquid chromatography—exact mass mass spectrometry (LC/QTOF) and the like. […] In one embodiment, a raw level, amount, or concentration of a drug in urine of a subject is measured and reported as a ratio, percent, or in relationship to the amount of fluid. The amount of fluid may be expressed as a unit volume, for example, in L, mL, μL, pL, ounce, etc. In one embodiment, the raw amount of a drug in Urine of a subject may be expressed as an absolute level or value, for example, in g, mg, μg, ng, pg, etc.
Then urine from the subject is tested. […] These values are within normal ranges so the data were processed.
Of the patients considered in this sample 70% were females and 30% were males.

On to `Cc1nnc2n1-c1ccc(Cl)cc1C(c1ccccc1)=NC2` [alprazolam], for which the “average urine drug concentration” value runs as follows: (Example 7, fifty randomly selected alprazolam patients, average daily dosage 2 mg) 155 ng/m L; (alprazolam model population, approximately 280,000 patient results, average daily dosage 3 mg) 375 ng/mL.
`COc1ccc2c3c1O[C@H]1C(=O)CC[C@H]4[C@@H](C2)N(C)CC[C@]314` [hydrocodone]: the “average urine drug concentration” value (hydrocodone model population, approximately 100,000 patient results, average daily dosage 30 mg) stood at 1784 ng/m L.
For `O=C1Nc2ccc(Cl)cc2C(c2ccccc2)=NC1O` (stereo not drawn) [oxazepam], the “average urine drug concentration” value (Example 8, fifty patients prescribed diazepam or temazepam (oxazepam as metabolite), average daily dosage 17 mg) came to 1096 ng/m L. Where the note is “oxazepam model population, approximately 207,000 patient results, prescribed diazepam and temazepam, average daily dosage 23 mg”, the “average oxazepam urine drug concentration” value was found to be 1819 ng/m L.
Take `COc1ccc2c3c1O[C@H]1C(=O)CC[C@@]4(O)[C@@H](C2)N(C)CC[C@]314` [oxycodone]: the “average urine drug concentration” value (oxycodone model population, approximately 47,000 patient results, average daily dosage 36 mg) was found to be 2120 ng/m L.
